Measured values published in the supplement of paper PMC9663587.

How the values were obtained:
Assay in all cases: area over the GR curve, 72 h; higher = more effect;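 note: Dye Drop or Deep Dye Drop imaging of viable cells in 384-well plates (Hoechst nuclei, LIVE/DEAD dye), nine half-log doses, GR normalized to DMSO controls and time-zero plates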
MDAMB231 = system: MDAMB231
MDAMB175VII = system: MDAMB175VII
CAL51 = system: CAL51
SUM44PE = system: SUM44PE
EVSAT = system: EVSAT
AU565 = system: AU565
MGH312 = system: MGH312
BT474 = system: BT474
UACC893 = system: UACC893
MDAMB361 = system: MDAMB361
ZR751 = system: ZR751
MCF12A = system: MCF12A
CAL851 = system: CAL851
MCF10A = system: MCF10A
SUM185PE = system: SUM185PE

CN1CCN(C(=O)c2ccc3cc(CCNc4ncnc5ccc(C#N)cc45)ccc3c2)CC1 [senexin b] (max 10 µM)
area over the GR curve (MDAMB231): 0.0788 GR
area over the GR curve (MDAMB175VII): 0.427 GR
area over the GR curve (CAL51): 0.119 GR
area over the GR curve (SUM44PE): 0.369 GR
area over the GR curve (EVSAT): 0.0803 GR
area over the GR curve (AU565): 0.111 GR
area over the GR curve (MGH312): 0.418 GR
area over the GR curve (BT474): 0.0613 GR
area over the GR curve (UACC893): 0.185 GR
area over the GR curve (MDAMB361): 0.323 GR
area over the GR curve (ZR751): 0.05 GR
area over the GR curve (MCF12A): 0.11 GR
area over the GR curve (CAL851): 0.226 GR
area over the GR curve (MCF10A): -0.0308 GR
area over the GR curve (SUM185PE): 0.293 GR
